Experimental data published in patent publication US20170042148A1, “USE OF A DICARBOXYLIC ACID TO CONTROL THE GROWTH OF HOLOPARASITIC OR HEMIPARASITIC PLANTS” (UNIVERSITE CLAUDE BERNARD LYON I, priority 2014, published 2017).

How the values were obtained:
[1] = test system: Striga hermontica; assay: Herbicidal effect on Striga hermontica growth in a microtiter plate (procaulome length); assay type: in vivo; settings: for Striga inhibition: 2 mg/mL of buffer, procaulome size after 3 days at 30° C. with GR24
Method: The activity of the diacids on the parasitic plants Striga and Orobanche was tested by preparing solutions of the selected diacid in water or in phosphate buffer (50 mM, pH 7) at concentrations of 1 to 20 mg/mL.
1. In a 12-well microtiter plate, filter papers (Whatman 3) are placed at the bottom of the wells and moistened with sterile water. About 30 sterilized seeds (rinsed with 70% ethanol, then 1% (w/v) Ca(ClO)2 and Tween® 20, then thoroughly with water) of the holo- or hemiparasitic plants are placed, in each well, on the surface of the filter papers. After 10 days of incubation at 30° C. and in the dark, increasing amounts of a diacid or of culture supernatant are added, in the presence of a germination stimulant, GR24. After 3 days of incubation at 30° C., the development of the parasitic plants in the presence of a diacid or of culture supernatant is compared to the negative control (water, phosphate buffer or sterile culture medium), with a macroscope coupled to a camera. The length of the procaulomes (radicles) of the holo- or hemiparasitic plants is measured in order to express the phytotoxic capacity of the tested products.

[2] = test system: Striga hermontica; assay: Emergence of Striga seedlings in soil mesocosms with sorghum; assay type: in vivo; settings: soil mesocosm with sorghum, after 2 months
Method: 2. Striga hermontica seeds (about 100 seeds/pot) and sorghum seeds (1 seed/pot) were introduced simultaneously into soil mesocosms, in the presence of increasing amounts of malic acid (2 and 20 g/L) or of culture supernatant, then grown in a greenhouse or a plot. The emergence of Striga seedlings is estimated visually, after 2 months of incubation. Phytotoxic capacity is estimated by comparison with a control without added malic acid or culture supernatant. A decrease of 22% in the number of Striga seedlings having emerged, compared to the control condition, is observed in the presence of 2 g/L malic acid and of 90% in the presence of 20 g/L malic acid. In the presence of the bacterial supernatant, a decrease of 58% in the number of Striga compared to the control condition was observed.

In the case of `O=C(O)CC(O)C(=O)O` (racemic) [DL-Malic acid], the Striga inhibition [1] is reported as “+ (weak inhibition (procaulome size between 0.2 and 0.8 mm))”.

With `O=C(O)C(=O)O` [Oxalic acid] the Striga inhibition [1] was “++ (strong inhibition (procaulome size < 0.2 mm))”.

`O=C(O)CC(O)C(=O)O` (stereo not shown) [malic acid] was tested, and the “decrease in the number of Striga seedlings having emerged, compared to the control condition” value ([2]; 2 g/L malic acid) was 22% and the “decrease in the number of Striga seedlings having emerged, compared to the control condition” value ([2]; 20 g/L malic acid) was 90%.

In the case of `O=C(O)C[C@H](O)C(=O)O` [L-Malic acid], the Striga inhibition [1] is reported as “++ (strong inhibition (procaulome size < 0.2 mm))” and the “effect on procaulome growth (FIG. 1)” value ([1]; supernatant of strain grown in Nfb*, L-malic acid 2 mg/mL in phosphate buffer) is reported as “inhibitory effect”.

With `O=C(O)CC(=O)O` [Malonic acid] the Striga inhibition [1] was “++ (strong inhibition (procaulome size < 0.2 mm))”.

`O=C(O)CCCC(=O)O` [Glutaric acid] was tested, and the Striga inhibition [1] was “++ (strong inhibition (procaulome size < 0.2 mm))”.

For `O=C(O)/C=C\C(=O)O` [Maleic acid], the Striga inhibition [1] was “++ (strong inhibition (procaulome size < 0.2 mm))”.

`O=C(O)C#CC(=O)O` [Acetylene dicarboxylic acid] was tested, and the Striga inhibition [1] was “++ (strong inhibition (procaulome size < 0.2 mm))”.
